# According to BindingDB's records for doi:10.1016/s0960-894x(99)00301-7 (Nankai University, 1999):
# Target: T1, Acetolactate synthase, chloroplastic (Arabidopsis thaliana, UniProt P17597)
# T1 sequence (P17597 whole entry): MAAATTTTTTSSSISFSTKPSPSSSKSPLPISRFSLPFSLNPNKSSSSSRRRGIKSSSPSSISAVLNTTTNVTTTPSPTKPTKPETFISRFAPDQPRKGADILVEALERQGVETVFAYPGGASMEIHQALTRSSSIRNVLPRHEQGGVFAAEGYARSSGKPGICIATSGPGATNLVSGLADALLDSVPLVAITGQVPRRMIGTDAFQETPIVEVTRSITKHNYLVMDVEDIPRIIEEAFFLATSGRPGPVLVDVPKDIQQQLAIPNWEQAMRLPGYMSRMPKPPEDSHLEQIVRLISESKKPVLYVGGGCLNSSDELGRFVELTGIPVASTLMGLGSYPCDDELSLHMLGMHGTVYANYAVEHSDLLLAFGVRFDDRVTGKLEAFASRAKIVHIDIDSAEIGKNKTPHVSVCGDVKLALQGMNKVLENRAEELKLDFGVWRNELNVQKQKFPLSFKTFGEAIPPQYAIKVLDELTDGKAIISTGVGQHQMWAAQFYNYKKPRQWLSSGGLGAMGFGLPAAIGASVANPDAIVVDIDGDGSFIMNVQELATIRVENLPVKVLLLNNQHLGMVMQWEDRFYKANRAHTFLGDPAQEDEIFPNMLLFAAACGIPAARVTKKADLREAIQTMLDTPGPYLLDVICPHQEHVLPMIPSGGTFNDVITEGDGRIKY
# Assay: ChEBML_27494
# Excerpt: Inhibitory activity against Acetolactate synthase (ALS) enzyme by using the rape-root growth method
row,Compound,IC50
1,O=C(OCn1ccc(=O)[nH]c1=O)c1ccc(I)cc1,> 269 µM
2,O=C(OCn1ccc(=O)[nH]c1=O)c1ccc(F)cc1,212 µM
3,O=C(OCn1ccc(=O)[nH]c1=O)c1ccc(Br)cc1,169 µM
4,COc1ccccc1C(=O)OCn1ccc(=O)[nH]c1=O,> 362 µM
5,O=C(OCn1ccc(=O)[nH]c1=O)c1ccc(Cl)cc1,182 µM
6,O=C(OCn1ccc(=O)[nH]c1=O)c1c(Cl)cc(C(F)(F)F)cc1Cl,> 261 µM
7,O=C(OCn1ccc(=O)[nH]c1=O)c1ccccc1,208 µM
8,O=C(OCn1ccc(=O)[nH]c1=O)c1ccc([N+](=O)[O-])cc1,> 344 µM
9,Cc1cccc(C(=O)OCn2ccc(=O)[nH]c2=O)c1,62 µM
10,COc1ccc(C(=O)OCn2ccc(=O)[nH]c2=O)cc1,> 362 µM
11,"Cc1cnc(NS(=O)(=O)c2cc(Cl)ccc2Cl)s1 [2,5-Dichloro-N-(5-methyl-thiazol-2-yl)-benzenesulfonamide]",> 309 µM
12,Cc1ccc(NS(=O)(=O)c2ccc(F)cc2)nc1 [4-Fluoro-N-(5-methyl-pyridin-2-yl)-benzenesulfonamide],152 µM
13,COc1cc(Cl)nc(NS(=O)(=O)c2ccc(F)cc2)n1 [N-(4-Chloro-6-methoxy-pyrimidin-2-yl)-4-fluoro-benzenesulfonamide],111 µM
14,Cc1ccnc(NS(=O)(=O)c2ccccc2[N+](=O)[O-])n1 [N-(4-Methyl-pyrimidin-2-yl)-2-nitro-benzenesulfonamide],287 µM
